Measurements published in patent US20230190663A1, “PRUSSIAN BLUE NANOPARTICLES FUNCTIONALIZATION WITH LATENCY REVERSING AGENTS AND BROADLY NEUTRALIZING ANTIBODIES, AND APPLICATIONS THEREOF” (THE GEORGE WASHINGTON UNIVERSITY, priority 2020, published 2023).

Experiments:
J-LAT cells [1] = assay: Latency reversal (GFP expression) in J-LAT cells, a model of latent HIV cells; format: cell-based
Protocol: To determine the efficiency of free Poly I:C compared to PolyIC-PBNPs on HIV reactivation, increasing concentrations were added to J-LAT cells. Specifically, nanoparticles (PolyIC-PBNP) were generated at varying Poly I:C concentrations (1.75, 1, 1.5 and 0.75 mg/mL) and added to the cell culture medium to treat the J-LAT cells.

J-LAT cells [2] = assay: Viability / cytotoxicity of treated J-LAT cells; settings: 1-15 μL, not transfected, FIG. 4B
Protocol: Example 3. […] J-LAT cells harbor latent, transcriptionally competent HIV provirus that encodes green fluorescent protein (GFP) as an indicator of HIV-1 reactivation. […] Generally for effective latency reversal, free Poly I:C has to be delivered into the cytoplasm of the latently infected cells via transfection.
Next, J-LAT cells were treated with increasing concentrations of Citrate-PBNP, PEI-PBNP or polyIC-PBNP (1 μL, 5 μL, 10 μL and 15 μL with [PBNP]=2 mg/mL and [polyIC]=0.5 mg/mL) where the PBNPs were added to the cell media (i.e., the PBNPs were not transfected into the cells).

[3] = system: peripheral blood mononuclear cells (PBMCs); assay: Flow cytometry of immune cell ratios and activation in treated PBMCs; format: cell-based, human; settings: compared to untreated PBMCs, FIG. 6G
Protocol: Example 4. Primary peripheral blood mononuclear cells (PBMCs) were isolated from blood collected from healthy human donors. PBMCs were incubated with increasing concentrations of Poly-PBNP (50, 5 and 1 μg/mL of attached PolyIC) and same concentrations of Free-Poly I:C overnight. PMA (Phorbol 12-myristate 13-acetate), a known immune-stimulator, was used as positive control herein. Following this treatment, the number of viable cells was assessed.
Treated PBMCs were subjected to flow cytometry to examine ratios of immune cells in response to Poly-PBNP and Free-Poly I:C treatments. […] There was no change in the amount of NK cells (CD56+ cells) for any of the treatment groups studied, compared to untreated PBMCs (FIG. 6F).

Substance: polyinosinic-polycytidylic acid [Free Poly I:C]
- Hill Slope (best-fit value) (J-LAT cells [1]; HIV reactivation in J-LAT cells, overnight, log(agonist) vs. normalized response, variable slope): 1.904
- latency reversal at increasing concentrations (J-LAT cells [1]; J-LAT cells, 1, 5, 10 and 15 μL added to cell media, not transfected, FIG. 4A): reversed latency in a dose dependent manner
- EC50 of HIV reactivation (GFP expression) (J-LAT cells [1]; J-LAT cells, overnight incubation, Table 1 prints none): 6.944 µg/mL
- cytotoxicity at increasing concentrations (J-LAT cells [2]): caused cytotoxicity at higher concentrations
- NK cells activation (CD56+CD69+) [3]: no changes
